ChEMBL document CHEMBL5528064, “Invention of MK-7845, a SARS-CoV-2 3CL Protease Inhibitor Employing a Novel Difluorinated Glutamine Mimic” (J Med Chem, 2024)
pIC50: −log10 of the molar value.

Assays:
SARS-CoV-2 [1] = experiment: Antiviral activity against replicon RNA harboring SARS-CoV-2 infected in human A549 cells assessed as inhibition of viral growth measured 40 hrs post treatment; type: functional, organism-based; details: Severe acute respiratory syndrome coronavirus 2, A549, 40 h
[2] = Inhibition of SARS-CoV-2 Omicron 3CLpro P132H mutant expressed in Escherichia coli (DE3) competent cells using CP488-ESATLQSGLRKAK-(CPQ2)-NH2 as substrate preincubated for 30 mins followed by substrate addition and measured after 4 hrs by FRET assay; design: species or system Severe acute respiratory syndrome coronavirus 2
SARS-CoV-2 [3] = experiment: Antiviral activity against SARS-CoV-2 Omicron B.1.1.529 harboring 3CLpro R346K mutant infected in human A549-hACE2-TMPRSS2 cells assessed as inhibition of virus induced cytopathic effect incubated for 72 hrs by celltiter glo assay; type: functional, organism-based, Severe acute respiratory syndrome coronavirus 2
SARS-CoV-2 [4] = experiment: Antiviral activity against replicon RNA harboring SARS-CoV-2 infected in human A549 cells assessed as inhibition of viral growth; type: functional, organism-based; details: Severe acute respiratory syndrome coronavirus 2, A549

| SMILES | pIC50 (SARS-CoV-2 [1]) | other results |
| --- | --- | --- |
| COC(=O)N[C@H](C(=O)N1C[C@@H]2CCC[C@@H]2[C@H]1C(=O)N[C@@H](CCC(C)(F)F)C(=O)C(=O)NC1CC1)C(C)(C)C | 7.74 |  |
| CNC(=O)C(=O)[C@H](CCC(C)(F)F)NC(=O)[C@@H]1[C@H]2CCC[C@H]2CN1C(=O)[C@@H](NC(=O)OC)C(C)(C)C | 7.82 | pIC50 [2]: 7.82; pIC50 (SARS-CoV-2 [3]): 6.67 |
| COC(=O)N[C@H](C(=O)N1CCC2(CC2)C[C@H]1C(=O)N[C@@H](CCC(C)(F)F)C(=O)C(=O)NC1CC1)C(C)(C)C | 7.70 |  |
| COC(=O)N[C@H](C(=O)N1CC[C@@H](C(F)(F)F)C[C@H]1C(=O)N[C@@H](CCC(C)(F)F)C(=O)C(=O)NC1CC1)C(C)(C)C | 7.72 |  |
| CNC(=O)C(=O)[C@H](CCC(C)(F)F)NC(=O)[C@@H]1C[C@H](C(F)(F)F)CCN1C(=O)[C@@H](NC(=O)OC)C(C)(C)C | 7.92 |  |
| COC(=O)N[C@H](C(=O)N1CC2(C[C@H]1C(=O)N[C@@H](CCC(C)(F)F)C(=O)C(=O)NC1CC1)CC2(F)F)C(C)(C)C (stereo not given in full) | 7.48 |  |
| COC(=O)N[C@H](C(=O)N1C[C@H]2[C@@H]([C@H]1C(=O)N[C@@H](CCC(C)(F)F)C(=O)C(=O)NC1CC1)C21CCOCC1)C(C)(C)C | 7.49 |  |
| CC(C)(C)NC(=O)N[C@H](C(=O)N1C[C@H]2[C@@H]([C@H]1C(=O)N[C@@H](C[C@@H]1CCNC1=O)C(=O)C(N)=O)C2(C)C)C(C)(C)C |  | pIC50 (SARS-CoV-2 [4]): 5.12 |
